# Laboratory results reported in ChEMBL document CHEMBL1124638, “2,4-Diamino-5-benzylpyrimidines and analogues as antibacterial agents. 10. 2,4-Diamino-5-(6-quinolylmethyl)- and -[(tetrahydro-6-quinolyl)methyl]pyrimidine derivatives. Further specificity studies” (J Med Chem, 1989).
# What was measured:
# Dihydrofolate reductase [1] = biological target: T1, Dihydrofolate reductase (Rattus norvegicus, UniProt Q920D2); assay: Inhibitory activity against dihydrofolate reductase in rat liver; details: read-out: I50
# T1 sequence (Q920D2 whole entry): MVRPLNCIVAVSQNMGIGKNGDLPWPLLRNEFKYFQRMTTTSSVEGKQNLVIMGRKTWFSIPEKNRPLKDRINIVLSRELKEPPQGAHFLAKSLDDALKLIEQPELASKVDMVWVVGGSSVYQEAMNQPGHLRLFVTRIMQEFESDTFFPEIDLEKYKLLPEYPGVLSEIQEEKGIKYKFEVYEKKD
# Dihydrofolate reductase [2] = biological target: Dihydrofolate reductase (Neisseria gonorrhoeae, UniProt P04174); assay: Inhibitory activity against Dihydrofolate reductase in Neisseria gonorrhoeae; details: read-out: I50
# Dihydrofolate reductase (Neisseria gonorrhoeae, UniProt P04174), sequence (P04174 whole entry): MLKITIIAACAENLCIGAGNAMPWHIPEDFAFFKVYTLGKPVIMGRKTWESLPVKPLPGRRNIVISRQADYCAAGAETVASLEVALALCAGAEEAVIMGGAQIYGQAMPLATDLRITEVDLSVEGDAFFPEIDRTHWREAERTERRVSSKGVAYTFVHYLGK
# Proteus mirabilis = assay: Comparative in vitro antibacterial activity with trimethoprim against Proteus mirabilis S2409; assay type: functional
# Citrobacter freundii = assay: Comparative in vitro antibacterial activity with trimethoprim against Citrobacter freundii 2200/77; assay type: functional
# Enterococcus faecalis = assay: Comparative in vitro antibacterial activity with trimethoprim against Streptococcus faecalis CN478; assay type: functional
# Pasteurella multocida = assay: Comparative in vitro antibacterial activity with trimethoprim against Pasteurella multocida ATCC 6587; assay type: functional
# Klebsiella aerogenes = assay: Comparative in vitro antibacterial activity with trimethoprim against Enterobacter aerogenes 2200/86; assay type: functional
# [3] = Comparative in vitro antibacterial activity with trimethoprim against Salmonella typhi CN512; assay type: functional, salmonella typhosa
# Vibrio cholerae = assay: Comparative in vitro antibacterial activity with trimethoprim against Vibrio cholerae ATCC 14035; assay type: functional
# Shigella flexneri = assay: Comparative in vitro antibacterial activity with trimethoprim against Shigella flexneri CN6007; assay type: functional
# [4] = tested on: Mycolicibacterium smegmatis; assay: Comparative in vitro antibacterial activity with trimethoprim against Mycobacterium smegmatis S 3254; assay type: functional
# Streptococcus pyogenes = assay: Comparative in vitro antibacterial activity of compound with trimethoprim against Streptococcus pyogenes CN10; assay type: functional
# Streptococcus agalactiae = assay: Comparative in vitro antibacterial activity with trimethoprim against Streptococcus agalactiae CN1143; assay type: functional
# Staphylococcus aureus = assay: Comparative in vitro antibacterial activity with trimethoprim against Staphylococcus aureus CN491; assay type: functional
# Klebsiella pneumoniae = assay: Comparative in vitro antibacterial activity with trimethoprim against Klebsiella pneumoniae CN3632; assay type: functional
# Escherichia coli = assay: Comparative in vitro antibacterial activity with trimethoprim against Escherichia coli CN314; assay type: functional
# [5] = tested on: Bordetella bronchiseptica; assay: Comparative in vitro antibacterial activity with trimethoprim against Bordetella bronchiseptica CN385; assay type: functional
# Salmonella typhimurium = assay: Comparative in vitro antibacterial activity with trimethoprim against Salmonella Typhimurium S 8587; assay type: functional, Salmonella enterica subsp. enterica serovar Typhimurium; details: Salmonella enterica
# Serratia marcescens = assay: Comparative in vitro antibacterial activity with trimethoprim against Serratia marcescens CN2398; assay type: functional
# Proteus vulgaris = assay: Comparative in vitro antibacterial activity with trimethoprim against Proteus vulgaris CN329; assay type: functional
Compound,IC50 (Dihydrofolate reductase [1]),IC50 (Dihydrofolate reductase [2]),MIC (Proteus mirabilis),MIC (Citrobacter freundii),MIC (Enterococcus faecalis),MIC (Pasteurella multocida),MIC (Klebsiella aerogenes),MIC [3],MIC (Vibrio cholerae),MIC (Shigella flexneri),MIC [4],MIC (Streptococcus pyogenes),MIC (Streptococcus agalactiae),MIC (Staphylococcus aureus),MIC (Klebsiella pneumoniae),MIC (Escherichia coli),MIC [5],MIC (Salmonella typhimurium),MIC (Serratia marcescens),MIC (Proteus vulgaris)
CCOC(=O)C1CNc2c(OC)cc(Cc3cnc(N)nc3N)c(OC)c2C1 (configuration not stated),142 µM,1.9 µM,–,–,–,–,–,–,–,–,–,–,–,–,–,–,–,–,–,–
COc1cc(Cc2cnc(N)nc2N)cc2c1N(CCOC(C)=O)CCC2C (configuration not stated),190 µM,0.63 µM,30 µg/mL,10 µg/mL,1 µg/mL,10 µg/mL,30 µg/mL,30 µg/mL,10 µg/mL,30 µg/mL,3 µg/mL,10 µg/mL,1 µg/mL,3 µg/mL,10 µg/mL,30 µg/mL,3 µg/mL,30 µg/mL,> 10 µg/mL,10 µg/mL
COc1cc(Cc2cnc(N)nc2N)cc2cccnc12,12 µM,–,3 µg/mL,10 µg/mL,3 µg/mL,3 µg/mL,3 µg/mL,3 µg/mL,1 µg/mL,3 µg/mL,1 µg/mL,3 µg/mL,3 µg/mL,3 µg/mL,3 µg/mL,3 µg/mL,30 µg/mL,3 µg/mL,1 µg/mL,3 µg/mL
COc1cc(Cc2cnc(N)nc2N)cc2c(C)ccnc12,–,–,1 µg/mL,3 µg/mL,1 µg/mL,1 µg/mL,1 µg/mL,1 µg/mL,0.3 µg/mL,1 µg/mL,0.3 µg/mL,1 µg/mL,1 µg/mL,0.3 µg/mL,1 µg/mL,1 µg/mL,3 µg/mL,3 µg/mL,1 µg/mL,1 µg/mL
Cc1ccnc2ccc(Cc3cnc(N)nc3N)c(N)c12,15 µM,–,30 µg/mL,100 µg/mL,10 µg/mL,300 µg/mL,300 µg/mL,100 µg/mL,100 µg/mL,100 µg/mL,100 µg/mL,30 µg/mL,100 µg/mL,30 µg/mL,100 µg/mL,100 µg/mL,> 100 µg/mL,100 µg/mL,> 10 µg/mL,> 100 µg/mL
CCN1CCC(C)c2cc(Cc3cnc(N)nc3N)ccc21 (configuration not stated),38 µM,0.69 µM,30 µg/mL,100 µg/mL,3 µg/mL,30 µg/mL,100 µg/mL,100 µg/mL,10 µg/mL,100 µg/mL,10 µg/mL,–,3 µg/mL,3 µg/mL,100 µg/mL,100 µg/mL,100 µg/mL,100 µg/mL,> 30 µg/mL,100 µg/mL
COc1cc(Cc2cnc(N)nc2N)cc2c(C)cc(C)nc12,43 µM,–,0.3 µg/mL,3 µg/mL,1 µg/mL,1 µg/mL,3 µg/mL,1 µg/mL,0.3 µg/mL,3 µg/mL,1 µg/mL,0.1 µg/mL,1 µg/mL,0.3 µg/mL,1 µg/mL,3 µg/mL,3 µg/mL,3 µg/mL,1 µg/mL,3 µg/mL
Nc1ncc(Cc2ccc3ncccc3c2)c(N)n1,18 µM,–,3 µg/mL,10 µg/mL,3 µg/mL,10 µg/mL,3 µg/mL,10 µg/mL,3 µg/mL,10 µg/mL,0.3 µg/mL,3 µg/mL,3 µg/mL,30 µg/mL,3 µg/mL,3 µg/mL,10 µg/mL,10 µg/mL,3 µg/mL,10 µg/mL
CCOC(=O)C1CNc2c(cc(Cc3cnc(N)nc3N)cc2OC)C1 (configuration not stated),44 µM,–,> 30 µg/mL,10 µg/mL,30 µg/mL,30 µg/mL,10 µg/mL,100 µg/mL,30 µg/mL,10 µg/mL,30 µg/mL,3 µg/mL,10 µg/mL,30 µg/mL,100 µg/mL,30 µg/mL,> 100 µg/mL,30 µg/mL,> 10 µg/mL,> 100 µg/mL
COCCOc1cc(Cc2cnc(N)nc2N)cc2cccnc12,9.9 µM,–,> 30 µg/mL,300 µg/mL,3 µg/mL,30 µg/mL,100 µg/mL,100 µg/mL,30 µg/mL,100 µg/mL,3 µg/mL,3 µg/mL,10 µg/mL,10 µg/mL,100 µg/mL,100 µg/mL,30 µg/mL,100 µg/mL,> 10 µg/mL,> 100 µg/mL
COc1cc(Cc2cnc(N)nc2N)cc2c1NCCC2C (configuration not stated),–,–,3 µg/mL,10 µg/mL,1 µg/mL,3 µg/mL,3 µg/mL,10 µg/mL,1 µg/mL,10 µg/mL,1 µg/mL,1 µg/mL,1 µg/mL,1 µg/mL,3 µg/mL,3 µg/mL,10 µg/mL,10 µg/mL,3 µg/mL,10 µg/mL
COCCN1CCC(C)c2cc(Cc3cnc(N)nc3N)cc(OC)c21 (configuration not stated),260 µM,1.4 µM,–,100 µg/mL,0.3 µg/mL,30 µg/mL,30 µg/mL,30 µg/mL,100 µg/mL,100 µg/mL,10 µg/mL,1 µg/mL,3 µg/mL,3 µg/mL,30 µg/mL,30 µg/mL,100 µg/mL,100 µg/mL,> 10 µg/mL,> 100 µg/mL
Cc1ccnc2c([N+](=O)[O-])cc(Cc3cnc(N)nc3N)cc12,5.7 µM,–,10 µg/mL,10 µg/mL,3 µg/mL,3 µg/mL,10 µg/mL,3 µg/mL,1 µg/mL,10 µg/mL,1 µg/mL,1 µg/mL,1 µg/mL,1 µg/mL,10 µg/mL,10 µg/mL,3 µg/mL,10 µg/mL,30 µg/mL,10 µg/mL
Cc1ccnc2c(N)cc(Cc3cnc(N)nc3N)cc12,32 µM,–,1 µg/mL,10 µg/mL,3 µg/mL,10 µg/mL,10 µg/mL,10 µg/mL,3 µg/mL,30 µg/mL,10 µg/mL,–,10 µg/mL,3 µg/mL,10 µg/mL,10 µg/mL,30 µg/mL,30 µg/mL,30 µg/mL,3 µg/mL
Nc1ncc(Cc2ccc3c(c2)CCCN3)c(N)n1,140 µM,–,10 µg/mL,10 µg/mL,10 µg/mL,10 µg/mL,10 µg/mL,10 µg/mL,10 µg/mL,30 µg/mL,3 µg/mL,10 µg/mL,10 µg/mL,30 µg/mL,10 µg/mL,30 µg/mL,10 µg/mL,10 µg/mL,10 µg/mL,10 µg/mL
Cc1ccnc2ccc(Cc3cnc(N)nc3N)cc12,22 µM,–,1 µg/mL,3 µg/mL,1 µg/mL,1 µg/mL,3 µg/mL,1 µg/mL,1 µg/mL,3 µg/mL,1 µg/mL,3 µg/mL,1 µg/mL,1 µg/mL,1 µg/mL,3 µg/mL,1 µg/mL,3 µg/mL,1 µg/mL,1 µg/mL
COc1cc(Cc2cnc(N)nc2N)cc2c1N(C)CCC2C (configuration not stated),–,0.89 µM,3 µg/mL,3 µg/mL,0.3 µg/mL,3 µg/mL,3 µg/mL,3 µg/mL,3 µg/mL,10 µg/mL,3 µg/mL,–,0.3 µg/mL,1 µg/mL,3 µg/mL,3 µg/mL,3 µg/mL,10 µg/mL,3 µg/mL,10 µg/mL
CN1CCCc2cc(Cc3cnc(N)nc3N)ccc21,89 µM,0.95 µM,10 µg/mL,30 µg/mL,3 µg/mL,30 µg/mL,30 µg/mL,30 µg/mL,10 µg/mL,10 µg/mL,10 µg/mL,–,10 µg/mL,10 µg/mL,30 µg/mL,30 µg/mL,30 µg/mL,30 µg/mL,30 µg/mL,30 µg/mL
